Results on four compounds are retold here after patent US11046709B2, “Fused 1,4-diazepines as BET bromodomain inhibitors” (THE REGENTS OF THE UNIVERSITY OF MICHIGAN, priority 2017, dated 2021).

Data set [1] deals with T1, recombinant BRD4 BD1 (Homo sapiens, UniProt O60885).
T1 construct: for recombinant BRD4 BD1 and BRD4 BD2 proteins
Briefly: Competitive fluorescence-polarization (FP) binding assay, BRD4 BD1. Conditions: competitive FP, Table 6; read-out: IC50 as determinined in FP assays BRD4 BD1.

The target in data set [2] is T2, recombinant BRD4 BD2 (Homo sapiens, UniProt O60885).
T2 construct: for recombinant BRD4 BD1 and BRD4 BD2 proteins
Description: Competitive fluorescence-polarization (FP) binding assay, BRD4 BD2. To be noted: competitive FP, Table 6; read-out: IC50 as determinined in FP assays BRD4 BD2.

Data set [3] concerns RS4;11. Description: Cell growth inhibition, 4-day proliferation assay, RS4;11. It counts as cell-based. To be noted: Homo sapiens, RS4-11; WST-8 assay, Table 7; read-out: Cell growth inhibition (IC50 (nM)) RS4;11. Here is the method:
The effect of representative Compounds of the Disclosure on cell viability was determined in a 4-day proliferation assay. Cells were maintained in the appropriate culture medium with 100/0 FBS at 37° C. and an atmosphere of 5% CO2. All the cell lines were used within three months of thawing fresh vials.
In general, cells were seeded in 96-well flat bottom (Corning COSTAR, Corning, N.Y., cat #3595) or white opaque cell culture plates (BD Falcon, cat #353296) at a density of 3,000-10,000 cells/well in 75 μl of culture medium. Compounds were serially diluted in the appropriate medium, and 75 μl of the diluted compounds were added to the appropriate wells of the cell plate. After the addition of compounds, the cells were incubated at 37° C. in an atmosphere of 5% CO2 for 4 days. Cell viability was determined using the CellTiter-Glo® Luminescent Cell Viability Assay Kit (Promega, Madison, Wis.) for leukemia cells and WST (2-(2-methoxy-4-nitrophenyl)-3-(4-nitrophenyl)-5-(2,4-disulfophenyl)-2H-tetrazolium, monosodium salt) Cell Counting-8 Kit (Dojindo Molecular Technologies, Inc., Rockville, Md.) for adherent cells according to the manufacturers' instructions.
For WST assay (adherent cells), WST-8 reagent was added to each well at a final concentration of 10% (v/v), and then the plates were incubated at 37° C. for 1-2 hours for color development. The absorbance was measured at 450 nm using a SPECTRAmax PLUS plate reader (Molecular Devices, Sunnyvale, Calif.). The readings were normalized to the DMSO-treated cells and the half maximal inhibitory concentration (IC50) was calculated by nonlinear regression (four parameters sigmoid fitted with variable slope, least squares fit, and no constraint) analysis using the GraphPad Prism 5 software (GraphPad Software, La Jolla, Calif.).
For CellTiter-Glo assay (suspension cells), 100 μl of CellTiter-Glo® Reagent was added to each well, and then the plates were incubated at room temperature for 10-20 minutes. The luminescent signal was measured using a Tecan Infinite M1000 multimode microplate reader (Tecan, Morrisville, N.C.). The readings were normalized to the DMSO-treated cells and the IC50 was calculated by nonlinear regression (four parameters sigmoid fitted with variable slope, least squares fit, and no constraint) analysis using the GraphPad Prism 5 software. See US 2014/0256706.
For a number of representative compounds in Table 5, their IC50 values in cell growth inhibition activity in the RS4;11 and MOLM-13 human leukemia cell lines and the MDA-MB-231 breast cancer cell line were evaluated using the WST-8 assay described in EXAMPLE 7, with the data shown in Table 7.
On the technique in general: Formazan colour is commonly taken as a measure of viable cells.

Data set [4] deals with MOLM-13. Briefly: Cell growth inhibition, 4-day proliferation assay, MOLM-13. Type of data set: cell-based. Conditions: Homo sapiens, MOLM-13, WST-8 assay, Table 7; read-out: Cell growth inhibition (IC50 (nM)) MOLM-13.
Data set [5] has as its target BRD2 BD1 (Homo sapiens, UniProt P25440). Briefly: Competitive FP binding assay, BRD2 BD1. Conditions: Table 8, read-out: IC50 (nM) in FP assays BRD2 BD1. As for the experimental part:
(§1) Fluorescence Polarization (FP) competitive binding studies were carried out using a FAM labeled fluorescent probe, see, e.g., Cpd. No. 350 of US 2014/0256706, to determine binding affinities of representative Compounds of the Disclosure for recombinant BRD4 BD1 and BRD4 BD2 proteins. Equilibrium dissociation constants (Kd) values of the fluorescent probe to BRD4 BD1 and BD2 proteins were determined from protein saturation experiments by monitoring the total fluorescence polarization of mixtures composed with the fluorescent probe at a fixed concentration and proteins with increasing concentrations up to full saturation. Serial dilutions of testing proteins were mixed with the fluorescent probe to a final volume of 200 μl in the assay buffer (100 mM phosphate buffer, pH=6.5, 0.01% Triton X-100 (Sigma, 282103) being added right before assays). Final fluorescent probe concentration was 1.5 nM for both proteins. Plates were incubated at room temperature for 30 minutes with gentle shaking to assure equilibrium. FP values in millipolarization units (mP) were measured using the Infinite M-1000 plate reader (Tecan U.S., Research Triangle Park, N.C.) in Microfluor 1 96-well, black, round-bottom plates (Thermo Scientific, Waltham, Mass.) at an excitation wavelength of 485 nm and an emission wavelength of 530 nm. Kd values of the fluorescent probe, which were calculated by fitting the sigmoidal dose-dependent FP increases as a function of protein concentrations using Graphpad Prism 6.0 software (Graphpad Software, San Diego, Calif.), are 5.5 and 3.0 nM to BDR4 BD1 and 2, respectively.
(§2) The IC50 and Ki values of compounds were determined in a competitive binding experiment. See US 2014/0256706. Mixtures of 10 μl of the tested compounds in assay buffer with 40% Ethylene Glycol and 190 μl of preincubated protein/probe complex solution in the assay buffer (100 mM potassium phosphate, pH 6.5, 0.01% Triton X-100) were added into assay plates which were incubated at room temperature for 30 minutes with gentle shaking. Final concentrations of proteins were 10 and 6 nM in assays for BRD4 BD1 and BD2, respectively. Final probe concentration is 1.5 nM in both assays. […] FP values were measured as described above. IC50 values were determined by nonlinear regression fitting of the competition curves. Instead of being calculated from IC50 values as described before. […]
(§3) For several representative compounds in Table 5, their binding affinities to BRD2 BD1 and BD2 proteins, and BRD3 BD1 and BD2 proteins were determined using the Competitive Fluorescence-Polarization (FP) Assays described in Example 6, with the data included in Table 8.

Data set [6] addresses BRD2 BD2 (Homo sapiens, UniProt P25440). Briefly: Competitive FP binding assay, BRD2 BD2. To be noted: Table 8, read-out: IC50 (nM) in FP assays BRD2 BD2. As for the experimental part:
as §1, §2, §3

The target in data set [7] is BRD3 BD1 (Homo sapiens, UniProt Q15059). Description: Competitive FP binding assay, BRD3 BD1. To be noted: Table 8, read-out: IC50 (nM) in FP assays BRD3 BD1. As for the experimental part: as §1, §2, §3
Chain of BRD3 BD1 (Q15059 34-140 limits assumed): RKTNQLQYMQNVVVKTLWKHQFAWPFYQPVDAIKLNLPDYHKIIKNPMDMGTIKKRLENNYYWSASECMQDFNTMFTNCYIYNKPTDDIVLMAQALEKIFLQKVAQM
Data set [8] addresses BRD3 BD2 (Homo sapiens, UniProt Q15059). Briefly: Competitive FP binding assay, BRD3 BD2. Conditions: Table 8, read-out: IC50 (nM) in FP assays BRD3 BD2. Here is the method:
as §1, §2, §3

A short description of data set [9]: Plasma exposure after oral gavage in mice, LC-MS/MS. It counts as in vivo. Conditions: mouse, plasma, mice, oral gavage 25 mg/kg; for concentration at 1 h: read-out: Plasma concentration (ng/mL) 1 h; for concentration at 3 h: read-out: Plasma concentration (ng/mL) 3 h; for concentration at 6 h: read-out: Plasma concentration (ng/mL) 6 h. Here is the method: For a number of representative compounds in Table 5, their plasma exposures with oral administration in mice via oral gavage were determined by LC-MS/MS, with the data shown in Table 9.

In data set [10] the test system is MDA-MB-231. Briefly: Cell growth inhibition, 4-day proliferation assay, MDA-MB-231. To be noted: Homo sapiens, MDA-MB-231; WST-8 assay, Table 7; read-out: Cell growth inhibition (IC50 (nM)) MDA-MB-231. Type of data set: cell-based. Summed up:
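Cells seeded at 3,000-10,000/well, treated with serially diluted compounds 4 days at 37 °C, 5% CO2. Viability by WST-8 (10% v/v, 1-2 h, A450); readings normalized to DMSO-treated cells, IC50 by four-parameter nonlinear regression.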

In general, IC50 refers to the concentration needed to halve the response being measured.

Each structure is given as a SMILES string.

Chain of BRD2 BD1 (P25440 74-180 limits assumed): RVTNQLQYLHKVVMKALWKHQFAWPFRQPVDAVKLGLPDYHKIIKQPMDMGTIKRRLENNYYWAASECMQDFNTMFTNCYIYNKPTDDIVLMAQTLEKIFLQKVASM
Chain of BRD2 BD2 (P25440 344-453 limits assumed): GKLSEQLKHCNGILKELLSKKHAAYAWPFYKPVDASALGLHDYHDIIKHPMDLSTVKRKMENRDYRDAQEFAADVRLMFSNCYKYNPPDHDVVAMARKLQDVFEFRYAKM
Chain of BRD3 BD2 (Q15059 306-415 limits assumed): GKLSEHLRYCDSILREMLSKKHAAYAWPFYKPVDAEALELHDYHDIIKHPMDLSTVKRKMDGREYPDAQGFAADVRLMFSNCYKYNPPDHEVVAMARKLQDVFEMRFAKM

On to `Cc1c(C#CC2CCOCC2)sc2c1C(c1ccc(Cl)cc1)=N[C@@H](CC(=O)N1CC(C)(O)C1)c1nnc(C)n1-2` [Compound 158, (S)-2-(4-(4-chlorophenyl)-3,9-dimethyl-2-((tetrahydro-2H-pyran-4-yl)ethynyl)-6H-thieno[3,2-f][1,2,4]triazolo[4,3-a][1,4]diazepin-6-yl)-1-(3-hydroxy-3-methylazetidin-1-yl)ethan-1-one], for which the IC50 amounted to 48.3 nM in data set [1]; 69.1 nM in data set [2]; 43 nM in [3]; 24.5 nM in data set [4]; 40.2 nM in data set [5]; 182 nM in data set [6]. The IC50 in data set [7] was determined as 63.7 nM; in data set [8], 220 nM. Further, the concentration at 1 h in [9] is 3380 ng/mL. Also, the concentration at 3 h in data set [9] is 1810 ng/mL. Further, the concentration at 6 h in [9] was determined as 946 ng/mL.
As for `Cc1nnc(C[C@@H]2N=C(c3ccc(Cl)cc3)c3c(sc(C#CC4CCOCC4)c3C)-n3c(C)nnc32)o1` [Compound 145, (S)-2-((4-(4-chlorophenyl)-3,9-dimethyl-2-((tetrahydro-2H-pyran-4-yl)ethynyl)-6H-thieno[3,2-f][1,2,4]triazolo[4,3-a][1,4]diazepin-6-yl)methyl)-5-methyl-1,3,4-oxadiazole], the IC50 stood at 16.3 nM in data set [1]; 47.5 nM in [2]; 13.3 nM in [3]; 11.3 nM in data set [4]; 105 nM in data set [10]; 26 nM in data set [5]. The IC50 in data set [6] was found to be 50.7 nM; in data set [7], 38.6 nM; in data set [8] it was 161 nM. In data set [9], the concentration at 1 h was found to be 6620 ng/mL. Also, the concentration at 3 h in [9] is 4880 ng/mL. In addition, the concentration at 6 h in data set [9] amounted to 629 ng/mL.
As to `Cc1c(C#CC2CCOCC2)sc2c1C(c1ccc(Cl)cc1)=N[C@@H](CC(=O)N1CCC(C)(O)CC1)c1nnc(C)n1-2` [Compound 157, (S)-2-(4-(4-chlorophenyl)-3,9-dimethyl-2-((tetrahydro-2H-pyran-4-yl)ethynyl)-6H-thieno[3,2-f][1,2,4]triazolo[4,3-a][1,4]diazepin-6-yl)-1-(4-hydroxy-4-methylpiperidin-1-yl)ethan-1-one], the IC50 was determined as 55.2 nM in data set [1]; 50.3 nM in data set [2]; 37 nM in [3]; 25.4 nM in [4]; 39.3 nM in data set [5]; 146 nM in data set [6]. For the same compound, the IC50 stood at 85.1 nM in data set [7] and 120 nM in data set [8]. In addition, the concentration at 1 h in data set [9] was 4630 ng/mL. The concentration at 3 h in data set [9] is 3760 ng/mL. Moreover, in [9], the concentration at 6 h amounted to 1190 ng/mL.
Regarding `Cc1c(C#CC2CCOCC2)sc2c1C(c1ccc(Cl)cc1)=N[C@@H](CC(=O)N1CCC(O)CC1)c1nnc(C)n1-2` [Compound 159, (S)-2-(4-(4-chlorophenyl)-3,9-dimethyl-2-((tetrahydro-2H-pyran-4-yl)ethynyl)-6H-thieno[3,2-f][1,2,4]triazolo[4,3-a][1,4]diazepin-6-yl)-1-(4-hydroxypiperidin-1-yl)ethan-1-one], the half-maximal inhibitory concentration (IC50) in data set [1] was 36.2 nM; in data set [2], 47.6 nM; in data set [3] it was 39.5 nM; in data set [4], 35.4 nM; in data set [5], 34.4 nM; in [6] it was 143 nM. The IC50 stood at 76.5 nM in data set [7] and 127 nM in [8]. Moreover, the concentration at 1 h in [9] was determined as 3460 ng/mL. The concentration at 3 h in data set [9] amounted to 2120 ng/mL. Further, the concentration at 6 h in data set [9] was 1700 ng/mL.
